Data: ChEMBL document CHEMBL5107961, “Design, synthesis, and biological evaluation of C6-difluoromethylenated epoxymorphinan Mu opioid receptor antagonists” (RSC Med Chem, 2022)

Biological target: Mu-type opioid receptor (Homo sapiens, UniProt P35372)
Assay type: functional, cell-based, CHO-K1
Description: Antagonist activity at human MOR expressed in CHO-K1 cells assessed as reduction in fentanyl induced cAMP production incubated for 30 mins by Lance ultra cAMP assay

Chain of Mu-type opioid receptor (P35372 whole entry): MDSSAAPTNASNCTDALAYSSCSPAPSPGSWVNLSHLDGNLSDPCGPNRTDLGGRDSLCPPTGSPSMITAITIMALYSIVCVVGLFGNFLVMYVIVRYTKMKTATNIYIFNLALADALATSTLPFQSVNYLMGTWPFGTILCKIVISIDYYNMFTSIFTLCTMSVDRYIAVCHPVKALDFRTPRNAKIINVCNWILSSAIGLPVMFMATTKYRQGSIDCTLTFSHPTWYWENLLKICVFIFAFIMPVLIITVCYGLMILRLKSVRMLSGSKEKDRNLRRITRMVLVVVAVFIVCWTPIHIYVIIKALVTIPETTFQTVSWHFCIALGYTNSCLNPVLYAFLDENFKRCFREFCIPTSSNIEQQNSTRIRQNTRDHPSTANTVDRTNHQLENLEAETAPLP

## Oc1ccc2c3c1O[C@H]1C(=C(F)F)CC[C@@]4(O)[C@@H](C2)N(CC2CC2)CC[C@]314
  IC50: 5.1 nM
